Reference: patent publication US20090143419A1, “METHODS AND COMPOSITIONS FOR CONTROLLING ECTOPARASITES” (HATCHTECH PTY LTD, priority 2005, published 2009)
Entries after “also recorded” stand apart in the source; their conditions may differ. Where a name gives a salt, the structure may show the parent alone. Read-outs that look alike come from different tables or passages of the source. Square brackets hold non-standard residues; d marks the D form. Peptide text beside a SMILES is read from it. * marks the point of attachment. Sta = CC(C)C[C@H](N)[C@@H](O)CC(=O)O; Isovaleryl = CC(C)CC(=O)*; Cbz = O=C(OCc1ccccc1)*; NHOH = ON*

Key:
lice eggs [1] = assay: Time-course in vitro lice egg hatching assay; assay type: in vivo, clothing lice (Pediculus humanus humanus); details: for effect on egg hatching: results not shown
[2] = test system: lice hatching proteases in the egg shell washings (ESW); assay: Gelatine substrate SDS-PAGE of egg shell washings treated with protease inhibitors; assay type: biochemical, Pediculus humanus humanus; details: 3 hrs at 37° C.
Method: Within 12 hours of hatching 50 body lice eggs (Pediculus humanus humanus) were removed from the hair and placed in a 1 ml eppendorf tube. 20 μL of distilled water was added to the unhatched eggs and the preparation incubated for 30 minutes at 32° C. The 20 μL was recovered, freeze dried and stored at −70° C. A number of other samples were also collected as described. Hair samples from which unhatched lice eggs had been removed were also collected and incubated as described above. In addition, a sample of unhatched eggs and a sample of hair from which lice eggs had been removed were collected 7 days post laying (within 24 hrs of egg hatching). Both samples were washed in 10 mls of a 1% solution of sodium hypochlorite for 1 minute followed by a 5×1 minute washes in 25 mls in distilled water to remove the hypochlorite. These samples were then incubated in 20 μL of distilled water as described above. In addition, a group of 25 lice eggs that were within 24 hours of hatching, were pretreated with 1% sodium hypochlorite, washed as described above and left to hatch. Within 1-2 hours after hatching the empty egg shells were incubated in 20 μL of distilled water as described above, the washings collected from the hatched egg shells and stored at −70° C. All of the extract samples were then freeze-dried overnight. The freeze-dried samples were then resuspended in 15 μL of non-reducing SDS sample buffer, centrifuged at 10,000 g for 2 minutes and the entire 15 μL loaded on to 10% gelatine substrate SD S-PAGE gels. Gels were run at 4° C. for 10 minutes at 10 mA followed by a further 25 minutes at 15 mA per gel. They were then incubated for 2×20 minutes in a 2.5% Triton-X 100 solution followed by a three hour incubation in 0.1M Tris/HCl containing 1 mM CaCl2 pH 8.0. Activity was detected as clear areas on the gel the result of protease activity degrading the gelatine within the gel.
10% SDS-PAGE gelatine substrate gels were loaded with freeze dried egg shell washings from 100 lice eggs that had been resuspended in 50 μl of non-reducing sample buffer with samples run at 10 μl per lane. Gels were run at 4° C. for 10 minutes at 10 mA per gel followed by a further 25 minutes at 15 mA per gel. Gels were then cut into strips and each strip incubated for 2×20 minutes in a 2.5% Triton-X 100 solution containing a specific inhibitor. The inhibitors used were the serine protease inhibitor PMSF (5 mM), the metalloprotease inhibitor 1,10-phenanthroline (10 mM), the aspartic protease Pepstatin (5 μM) and the cysteine inhibitor E-64 (10 μM). The gel strips were then incubated in 0.1M Tris/HCl containing 1 mM CaCl2 pH 8 containing the different protease inhibitors for 3 hrs at 37° C., before being stained in Coomassie blue and destained as previously described.

lice eggs [3] = assay: Lice egg-hatch bioassay, eggs treated five days post laying; assay type: in vivo, clothing lice (Pediculus humanus humanus)
Method: To evaluate the potential effects of protease inhibitors on lice egg hatching it was necessary to develop a reliable in vitro bioassay. Male and female clothing lice were fed on a rabbit as previously described. […] During this period the female lice laid their eggs and attached them to the woven cloth. All lice would then be removed and the eggs permitted to incubate for the following 5 days. […] The eggs would then progress through to their final stages of development and hatch. In untreated control eggs a reliable average percentage hatch of between 85-95 percent was obtained using the in vitro egg hatch assay. […] Lice eggs were laid onto cloth as described above. […] Protease inhibitor solutions were typically prepared as stock solutions and added fresh at the appropriate concentration. Specifically stock solutions were prepared as follows: 1,10-phenanthroline (200 mM in methanol) and bestatin (5 mg/ml in methanol). In addition, the equivalent levels of the solvent were added to the non-inhibitor containing controls eggs to test for any buffer alone effects. Percentage hatch inhibition was calculated as the percentage reduction in egg hatch compared to the untreated control.

[4] = test system: Plutella xylostella eggs (Waite strain); assay: Egg hatching of Plutella xylostella
Method: The egg masses were then placed in a humid box at 25 degrees until egg hatch. Control eggs were exposed to absolute methanol as described above. At day 6 post laying the eggs were assessed from the different treatments and the percentage of egg hatch determined relative to the control as shown in Table 9.
Batches of Plutella eggs that were laid on either fine cloth or parafilm were dipped in a specific inhibitor solution for between 2-10 seconds, the excess solution was drained by blotting with dry tissue paper. The egg masses were then placed in a humid box at 25 degrees until egg hatch. Control eggs were exposed to absolute methanol as described above or not treated. At day 6 post laying the eggs were assessed from the different treatments and the percentage of egg hatch determined relative to the controls as shown in Tables 10 and 11.
Batches of Plutella eggs that were laid on fine cloth were dipped in a specific inhibitor solution for approximately 2 seconds, the excess solution was drained by blotting with dry tissue paper. The egg masses were then placed in a humid box at 25 degrees until egg hatch. Control eggs were exposed to absolute methanol as described above or not treated. At day 6 post laying the eggs were assessed from the different treatments and the percentage of egg hatch determined relative to the control as shown in Table 12.
The egg masses were then placed in a humid box at 25 degrees until egg hatch. Control eggs were exposed to absolute ethanol as described above. On day 6 post laying the eggs were assessed from the different treatments and the percentage of egg hatch determined relative to the control.

[5] = test system: Helicoverpa armigera eggs (Tatura×Toowoomba strains); assay: Egg hatching of Helicoverpa armigera; details: Table 15
Method: Several hundred Helicoverpa armigera eggs (Tatura×Toowoomba strains) were collected, that had been laid on fine mesh cloth over a 24 hour period.
Batches of Helicoverpa eggs were exposed to a specific inhibitor solution for between 2-10 seconds the excess solution drained by blotting with dry tissue paper. The egg masses were then placed in a humid box at 25 degrees until egg hatch. Control eggs were exposed to absolute methanol as described above.

[6] = Pediculus humanus, 5 mg/ml, read-out: % Inhibition of lice egg hatching (maximum over the time-course)
[7] = Pediculus humanus, 5 mM, read-out: % Inhibition of lice egg hatching (maximum over the time-course)
[8] = Table 10, 1 mM, eggs laid on cloth
[9] = Table 10, 10 mM, eggs laid on cloth
[10] = Table 11, 1 mM, eggs laid on parafilm
[11] = Table 12, 0.01 mM, cloth, dipped approximately 2 seconds
[12] = Table 12, 0.1 mM, cloth, dipped approximately 2 seconds
[13] = Table 12, 1 mM, cloth, dipped approximately 2 seconds
[14] = Table 12, 10 mM, cloth, dipped approximately 2 seconds

CNC(=O)[C@H](Cc1c[nH]c2ccccc12)NC(=O)[C@@H](CC(=O)NO)CC(C)C [GM 6001, reference compound]
% Inhibition of lice egg hatching (maximum over the time-course) (lice eggs [1]; concentration not given): 0%

O=S(=O)(F)Cc1ccccc1 [PMSF]
protease activity of the ESW ([2]; 5 mM inhibitor): No reduction in protease activity

CN(C)c1ccc(O)c2c1C[C@H]1C[C@H]3[C@H](N(C)C)C(O)=C(C(N)=O)C(=O)[C@@]3(O)C(O)=C1C2=O [minocycline, reference compound]
inhibition at 5000 µg/mL (lice eggs [1]; [6]): 55%

CC(C)C[C@H](NC(=O)[C@H]1O[C@@H]1C(=O)O)C(=O)NCCCCN=C(N)N [Inhibitor E-64]
protease activity of the ESW ([2]; 10 μM inhibitor): No reduction in protease activity

[H]/N=C(\N/C(=N/[H])NCCCCCCNC(=N)NC(=N)Nc1ccc(Cl)cc1)Nc1ccc(Cl)cc1 [chlorhexidine dihydrochloride, reference compound]
% Inhibition of lice egg hatching (maximum over the time-course) (lice eggs [1]; concentration not given): 0%

CC(C)C[C@H](NC(=O)[C@@H](O)[C@H](N)Cc1ccc([N+](=O)[O-])cc1)C(=O)O [nitrobestatin, reference compound]
% Inhibition of lice egg hatching (maximum over the time-course) (lice eggs [1]; 1 mg/ml): 0%

CC(C)C[C@H](NC(=O)[C@@H](O)[C@H](N)Cc1ccccc1)C(=O)O [bestatin, reference compound]
inhibition at 5000 µM (lice eggs [1]; [7]): 58% | inhibition at 5000 µM (lice eggs [1]; Pediculus humanus, 144 h, 5 mM, treated 144 hr post egg laying, read-out: Percent inhibition of egg hatching): 53% | lice egg hatching (lice eggs [3]; 5 mM, eggs treated 5 days post laying): significantly inhibit lice egg hatching | inhibition of egg hatching (lice eggs [3]; added within 24 hours of hatching): variable inhibition

O=C(O)CN(CCOCCOCCN(CC(=O)O)CC(=O)O)CC(=O)O [EGTA, reference compound]
effect on egg hatching (lice eggs [1]; 10 mM): did not appear to have an effect

CC(C)C[C@H](NP(=O)(O)O[C@@H]1O[C@@H](C)[C@H](O)[C@@H](O)[C@H]1O)C(=O)N[C@@H](Cc1c[nH]c2ccccc12)C(=O)O [phosphoramidon, N-(alpha-rhamnopyranosyloxy-hydroxyphosphinyl)-L-leucyl-L-tryptophan, reference compound]
inhibition at 5000 µM (lice eggs [1]; [7]): 41%

CN(C)[C@@H]1C(O)=C(C(N)=O)C(=O)[C@@]2(O)C(O)=C3C(=O)c4c(O)cccc4[C@@](C)(O)[C@H]3C[C@@H]12 [tetracycline, reference compound]
inhibition at 5000 µg/mL (lice eggs [1]; [6]): 89%

Cc1ccnc(-c2cc(C)ccn2)c1 [4,4′-dimethyl-2,2′-dipyridyl]
Number hatched [4, 8]: 0 | Number unhatched [4, 8]: 30 | % Inhibition ([4]; Table 10, 1 mM, eggs laid on cloth, relative to controls): 100% | Number hatched [4, 9]: 0 | Number unhatched [4, 9]: 36 | % Inhibition ([4]; Table 10, 10 mM, eggs laid on cloth, relative to controls): 100% | Number hatched [4, 10]: 10 | Number unhatched [4, 10]: 121 | % Inhibition ([4]; Table 11, 1 mM, eggs laid on parafilm, relative to controls): 91% | Number hatched ([4]; Table 11, 10 mM, eggs laid on parafilm): 0 | % Inhibition ([4]; Table 11, 10 mM, eggs laid on parafilm, relative to controls): 100% | Number hatched [4, 11]: 29 | Number unhatched [4, 11]: 1 | Number hatched [4, 12]: 33 | Number unhatched [4, 12]: 18 | Number hatched [4, 13]: 0 | Number unhatched [4, 13]: 63 | Number hatched [4, 14]: 1 | Number unhatched [4, 14]: 77 | Number hatched ([5]; 1 mM): 23 | Number unhatched ([5]; 1 mM): 29 | Number hatched ([5]; 10 mM): 8 | Number unhatched ([5]; 10 mM): 43

O=C(O)CN(CCN(CC(=O)O)CC(=O)O)CC(=O)O [EDTA, reference compound]
effect on egg hatching (lice eggs [1]; 100 mM): did not appear to have an effect

CCCCC[C@H](CC(=O)NO)C(=O)N[C@H](C(=O)N1CCC[C@H]1CO)C(C)C [actinonin, reference compound]
inhibition at 5000 µM (lice eggs [1]; [7]): 0%

c1ccc(-c2ccc3ccccc3n2)nc1 [2-(2-pyridinyl)quinoline]
% Inhibition ([4]; Table 16, 10 mM, relative to control (100% ETOH)): able to inhibit egg hatching

CO[C@@H]1[C@H](OC(=O)/C=C/C=C/C=C/C=C/C(=O)O)CC[C@]2(CO2)[C@H]1[C@@]1(C)O[C@@H]1CC=C(C)C [fumagillin, reference compound]
inhibition at 5000 µM (lice eggs [1]; [7]): 0%

C[C@H](CS)C(=O)N1CCC[C@H]1C(=O)O [captopril, 1-[(2S)-3-mercapto-2-methyl-1-oxopropyl]-L-proline, reference compound]
inhibition at 23000 µM (lice eggs [1]; Pediculus humanus, 23 mM, read-out: % Inhibition of lice egg hatching (maximum over the time-course)): 27%

CC(C)CC(=O)N[C@H](C(=O)N[C@H](C(=O)N[C@@H](CC(C)C)[C@@H](O)CC(=O)N[C@@H](C)C(=O)N[C@@H](CC(C)C)[C@@H](O)CC(=O)O)C(C)C)C(C)C [pepstatin] (Isovaleryl-VV[Sta]A[Sta]-OH)
protease activity of the ESW ([2]; 5 μM inhibitor): did not show any reduction in protease activity; also recorded: No reduction in protease activity

C[C@H]1c2cccc(O)c2C(=O)C2=C(O)[C@]3(O)C(=O)C(C(N)=O)=C(O)[C@@H](N(C)C)[C@@H]3[C@@H](O)[C@@H]21 [doxycycline, reference compound]
% Inhibition of lice egg hatching (maximum over the time-course) (lice eggs [1]; 5 mg/ml): 69% | inhibition at 5000 µg/mL (lice eggs [1]; [6]): 65%

c1ccc(-c2ccccn2)nc1 [2,2′-dipyridyl]
% Inhibition of lice egg hatching (maximum over the time-course) (lice eggs [1]; 10 mM): 100% | Ph (number of eggs partly hatched) (lice eggs [1]; Table 5, […], per replicate): 0 | lice egg hatching (lice eggs [1]; in vivo): completely inhibited

CC(C)C[C@H](N)[C@](O)(Cc1cnc[nH]1)C(=O)O [leuhistin, reference compound]
% Inhibition of lice egg hatching (maximum over the time-course) (lice eggs [1]; 5 mM): 0%

CC(C)C[C@H](N)CS [L-leucinthiol, reference compound]
inhibition at 5000 µM (lice eggs [1]; [7]): 0%

O=C(O)CNC(=O)C(CS)Cc1ccccc1 [D-L thiorophan, reference compound]
% Inhibition of lice egg hatching (maximum over the time-course) (lice eggs [1]; 1 mg/ml): 20%

CC(C)C[C@@H](N)[C@H](O)C(=O)N[C@H](C(=O)N[C@H](C(=O)N[C@@H](CC(=O)O)C(=O)O)C(C)C)C(C)C [amastatin, reference compound]
inhibition at 5000 µM (lice eggs [1]; [7]): 26%

CC(C)C[C@H](NC(=O)[C@@H]1CCCN1C(=O)OCc1ccccc1)C(=O)NCC(=O)NO [N-CBZ-PRO-LEU-GLY hydroximate, reference compound] (Cbz-Pro-Leu-Gly-{NHOH})
% Inhibition of lice egg hatching (maximum over the time-course) (lice eggs [1]; 10 mM): 0%
